We go through 2 compounds from ChEMBL document CHEMBL5329215, “Review and prospects of targeted therapies for Spleen tyrosine kinase (SYK)” (Bioorg Med Chem, 2023).

In assay [1] the target is Tyrosine-protein kinase SYK (Homo sapiens, UniProt P43405). In words: Inhibition of human SYK at Py+3 pocket.
A short description of assay [2]: PROTAC activity at E3 ubiquitin ligase (unknown origin)/STAT5 (unknown origin) assessed as […].

In the case of `O=C(O)CCCCN(CCCC1CCCCC1)S(=O)(=O)/C=C/c1ccc(NC(=O)C2CCC(C(C(=O)O)C(=O)O)CC2)cc1` (configuration not stated), the IC50 in assay [1] is 38 µM. For the compound `CN(CCCC#Cc1cccc2c1CN(C1CCC(=O)NC1=O)C2=O)C(=O)CCN(C(=O)[C@@H]1CCCN1C(=O)[C@H](NC(=O)c1cc2cc(C(F)(F)P(=O)(O)O)ccc2s1)C(C)(C)C)c1ccc(-c2nccs2)cc1` (some centres not stated), in assay [2], the EC50 came to 0.1 µM.
